From patent US20050076943A1, “Thermoelectric sensor” (priority 2001, published 2005)

What was measured:
[1] = system: rabbit ventricular cardiomyocytes; experiment: Heat output from isolated cardiac myocytes challenged with a mitochondrial uncoupler; assay type: cell-based; settings: CCCP 14 μM final concentration, n=5
Protocol: Cardiomyocytes. Isolated cells were obtained from adult rabbit left ventricle by collagenase digestion and kept in Base Krebs Solution, containing: 120 mM NaCl, 20 mM sodium N-hydroxyethylpiperazine-N′-2-ethane sulphonic acid (HEPES), 5.4 mM KCl, 0.52 mM NaH2PO4, 3.5 mM MgCl2.6 H2O, 20 mM taurine, 10 mM creatine, 11.1 mM glucose, 0.1% bovine serum albumin (BSA), pH 7.4. Cells were transferred to the sensor chips using a pipette (manual or robotic instrument) and placed onto the thermocouple junctions.
Experimental Set-up: The sensor chip used in the experiment (FIG. 1) was connected to the custom-made low noise preamplifier, which was positioned within 1 cm of the sensor chip in order to reduce attenuation of the voltage signal and minimise interference. The chip-holder was connected to the amplifier through a gold plated 2.54 mm (0.1 inch) pitch PCB edge connector (gold was used consistently in all contacts to avoid the creation of additional thermocouple junctions between the sensor output and the amplifier input). A transparent chamber enclosed the sensor from the surrounding air to eliminate rapid temperature changes. Water (37° C. or 25° C.), maintained at a constant temperature, was circulated through a 1 ml chamber integrated as part of the copper base plate. […]

single mouse liver cell = settings: H2O2 initial concentration 14 mM, 700 pL, n=3
Source text: The culture medium (pH 7.4) required to accommodate the cell occupied the full volume of the reaction vessel, and was considered to have the same thermodynamic properties as water. […] The heat conductance for a single cell system would be 80 μW/K with a heat capacity of 1 μJ/K.
Subsequently a mouse liver cell was positioned by a micromanipulator and immobilised on top of the temperature sensors in the reaction vessel with the aid of Cell-Tak tissue adhesive ensuring good thermal contact between the cell and sensor surface. H2O2 was then microinjected to yield an initial concentration of 14 mM after 200 seconds of the experiment commencing. The slightly altered pH value of the medium has minimal effect on the catalase activity. […] The short time constant for thermal equilibrium of the sensor (12 ms) compared to the long time duration of the measured signal (100 s), excludes a temperature difference in the injected solution as the cause of the measured temperature change.

brown adipocytes = experiment: Thermogenic response (heat output) of cultured brown adipocytes on the thermoelectric sensor; assay type: cell-based
Protocol: Brown adipocytes. Brown adipose tissue (BAT) was dissected from the interscapular, subscapular and the axillary regions of four 4-week-old male Naval Medical Research Institute (NMRI) mice. Pre-adipocytes were isolated and seeded in three 30 mm culture dishes and incubated in medium containing sodium bicarbonate (3.7 g/l) under 8% CO2 atmosphere for 6 days, after which time they were harvested. The culture medium based on DMEM with pH 7.4, was modified with 10% foetal calf serum, 20 nM insulin, 1 nM triiodothyronin (T3), 25 μg/ml Na-ascorbate, 4 mM glutamine, 10 mM HEPES, 50 IU/ml penicillin and 50 μg/ml streptomycin. Insulin was required for the expression of mitochondrial uncoupling protein (UCP) whereas the presence of T3 increased the thermogenic response due to more β-adrenergic receptors on the cells. All chemicals were supplied from Sigma-Aldrich and ICN Biomedicals Inc.
Experimental Set-up: The sensor chip used in the experiment (FIG. 1) was connected to the custom-made low noise preamplifier, which was positioned within 1 cm of the sensor chip in order to reduce attenuation of the voltage signal and minimise interference. The chip-holder was connected to the amplifier through a gold plated 2.54 mm (0.1 inch) pitch PCB edge connector (gold was used consistently in all contacts to avoid the creation of additional thermocouple junctions between the sensor output and the amplifier input). A transparent chamber enclosed the sensor from the surrounding air to eliminate rapid temperature changes. Water (37° C. or 25° C.), maintained at a constant temperature, was circulated through a 1 ml chamber integrated as part of the copper base plate. Both amplifier and sensor were positioned under a stereo-microscope for the manipulation and positioning of cells, injection of drugs and visual observation throughout the experiment,. The attachment of cells on the thermopile was enhanced by pre-treating the sensor surface with poly-L-lysine, adsorbed from a 0.01% solution in buffer.
The cell chamber was first covered with a 0.5 μL drop of culture medium with a subsequent addition of 15 μL liquid paraffin (mineral oil) in order to prevent evaporation of the medium. Re-suspended adipocytes (or cardiomyocytes) were positioned on top of the sensing junctions using a micropipette and micromanipulator (FIG. 3a, b, c). Excess medium was removed from the titre chamber leaving a total volume of 700 pL.
Measurements of heat output from cells were made with the cell chamber filled with 700 pL of culture medium and overlain with a layer of mineral oil to prevent evaporation. The device was held at a constant temperature of either 25° C. or 37° C. In the absence of cells there was no response from the thermopile to the injection of 10 pL of culture medium, nor to 10 pL culture medium containing a final concentration of 1.4 μM NE (see FIG. 4). […] The magnitude of the response was consistent with published values from populations of cells, where above-threshold levels of NE activation induced a ten-fold increase in oxygen consumption.

In the case of `N#CC(C#N)=NNc1cccc(Cl)c1` [CCCP, carbonyl cyanide m-chlorophenyl hydrazone], the “heat production per cell” value [1] is reported as 1.71 nW per cell and the “mean change in signal” value ([1]; within three minutes) is reported as 136 μK.

In the case of `OO` [H2O2, Hydrogen peroxide], the “generated power, maximum signal change” value (single mouse liver cell) is reported as 38.2 nW.

In the case of `NC[C@H](O)c1ccc(O)c(O)c1` [NE, noradrenaline], the “time to maximum value of heat production” value (brown adipocytes; 1.4 μM NE final concentration (saturated thermogenic response)) is reported as ≤ 2 min, the “duration for which heat output was sustained” value (brown adipocytes; NE-stimulated cells, 1.4 μM) is reported as “at least 20 minutes” and the “average power output per cell” value (brown adipocytes; brown adipocytes, 1.4 μM NE final concentration, n=5) is reported as 1.63 nW per cell. For the same compound, the “average power output, thermogenic response from groups of 10 NE-stimulated cells” value (brown adipocytes; groups of 10 brown adipocytes, 1.4 μM NE final concentration, 700 pL chamber, n=5) was 16.3 nW.

With `C=C(C)[C@H]1Cc2c(ccc3c2O[C@@H]2COc4cc(OC)c(OC)cc4[C@@H]2C3=O)O1` [rotenone] the “delay before temperature response began to return to basal level” value (brown adipocytes; NE-stimulated brown adipocytes, rotenone 14 μM final concentration) was 3 min and the “time for temperature response to return to basal level” value (brown adipocytes; NE-stimulated brown adipocytes, rotenone 14 μM final concentration, after the delay) was ≤ 5 min.
